Our source for the IC50 values is PubChem BioAssay AID686918 (Sanford-Burnham Center for Chemical Genomics, 2013).

Molecules are shown by their SMILES. Activity calls are given as the source filed them.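 How the source made its calls: active means thrombin counterscreen IC50 at or below 100 µM; inactive means the rest.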

Sequence of Prothrombin (Bos taurus) (P00735 whole entry, looked up): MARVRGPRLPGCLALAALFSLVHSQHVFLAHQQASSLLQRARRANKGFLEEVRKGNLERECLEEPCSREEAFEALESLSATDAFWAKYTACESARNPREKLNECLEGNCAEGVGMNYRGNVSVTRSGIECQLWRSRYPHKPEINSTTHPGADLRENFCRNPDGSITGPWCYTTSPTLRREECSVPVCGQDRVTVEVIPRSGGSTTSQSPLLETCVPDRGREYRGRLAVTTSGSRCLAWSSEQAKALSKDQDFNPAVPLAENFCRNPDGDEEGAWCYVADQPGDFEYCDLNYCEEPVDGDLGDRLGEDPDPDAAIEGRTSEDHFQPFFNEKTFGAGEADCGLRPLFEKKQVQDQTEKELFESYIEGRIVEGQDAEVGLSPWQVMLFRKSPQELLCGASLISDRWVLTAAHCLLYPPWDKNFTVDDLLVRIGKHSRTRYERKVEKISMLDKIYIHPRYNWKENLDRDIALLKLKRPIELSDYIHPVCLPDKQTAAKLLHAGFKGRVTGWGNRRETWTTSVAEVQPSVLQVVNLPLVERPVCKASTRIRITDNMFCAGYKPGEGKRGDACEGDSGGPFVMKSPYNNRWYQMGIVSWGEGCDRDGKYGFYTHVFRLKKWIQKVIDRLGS

This test addresses Prothrombin (Bos taurus) (UniProt P00735). The test is described as follows: thrombin inhibitor potency on Ub4 substrate – biochemical, fluorescence polarization, SAR validation, counter-screen for Rpn11 inhibitor project, dose response (AID 686918). The following applies: bovine thrombin cleavage of Ub4-pepOG. In general terms: In fluorescence polarisation assays a small probe gives low polarisation when free and higher when bound to something large.
Broadly, the IC50 is the concentration needed to halve the response being measured. As to `Cc1cccc(C(=O)Sc2cccc3cccnc23)c1`, the IC50 is > 99 µM (inactive).

Consider `COC(=O)[C@H](CC(C)C)NC(=O)c1cnc2c(SSc3cccc4cc(C(=O)N[C@@H](CC(C)C)C(=O)OC)cnc34)cccc2c1`, for which the IC50 was > 99 µM (inactive).

Turning to `COC(=O)c1cnc2c(SSc3cccc4cc(C(=O)OC)cnc34)cccc2c1`, the IC50 was > 99 µM (inactive).

As to `O=C(Sc1cccc2cccnc12)c1ccc2c(c1)OCO2`, the IC50 is > 99 µM (inactive).

Regarding `COC(=O)C[C@H](NC(=O)c1cnc2c(SSc3cccc4cc(C(=O)N[C@@H](CC(=O)OC)C(=O)OC)cnc34)cccc2c1)C(=O)OC`, the IC50 was > 99 µM (inactive).

On to `O=C(O)[C@@H]1CCCN1C(=O)c1cnc2c(SSc3cccc4cc(C(=O)N5CCC[C@H]5C(=O)O)cnc34)cccc2c1`, for which the IC50 was > 99 µM (inactive).

As to `O=C(Sc1cccc2cccnc12)c1ccccc1Br`, the IC50 is > 99 µM (inactive).

As to `O=C(Sc1cccc2cccnc12)c1ccc([N+](=O)[O-])cc1`, the IC50 was > 99 µM (inactive).

As to `N#Cc1ccc(C(=O)Sc2cccc3cccnc23)cc1`, the IC50 was > 99 µM (inactive).

With `CC(C)[C@H](NC(=O)c1cnc2c(SSc3cccc4cc(C(=O)N[C@H](C(=O)O)C(C)C)cnc34)cccc2c1)C(=O)O`, the IC50 is > 99 µM (inactive).

Turning to `CC[C@@H](C)[C@H](NC(=O)c1cnc2c(SSc3cccc4cc(C(=O)N[C@H](C(=O)O)[C@H](C)CC)cnc34)cccc2c1)C(=O)O`, the IC50 was > 99 µM (inactive).

With `CCCc1ccc(C(=O)Sc2cccc3cccnc23)cc1`, the IC50 is > 99 µM (inactive).

As to `CCOc1ccccc1C(=O)Sc1cccc2cccnc12`, the IC50 was > 99 µM (inactive).

As to `COc1ccc(C(=O)Sc2cccc3cccnc23)cc1`, the IC50 was > 99 µM (inactive).

As for `COC(=O)[C@H](CO)NC(=O)c1cnc2c(SSc3cccc4cc(C(=O)N[C@@H](CO)C(=O)OC)cnc34)cccc2c1`, the IC50 was > 99 µM (inactive).

`O=C(Sc1cccc2cccnc12)c1cccc(C(F)(F)F)c1`: the IC50 is > 99 µM (inactive).

Take `Cc1ccccc1C(=O)Sc1cccc2cccnc12`: the IC50 was > 99 µM (inactive).

With `N#Cc1cccc(C(=O)Sc2cccc3cccnc23)c1`, the IC50 was > 99 µM (inactive).

On to `O=C(Sc1cccc2cccnc12)c1ccc(C(F)(F)F)cc1`, for which the IC50 was > 99 µM (inactive).

Regarding `O=C(Sc1cccc2cccnc12)c1ccccc1I`, the IC50 is > 99 µM (inactive).

For the molecule `COc1cccc(C(=O)Sc2cccc3cccnc23)c1`, the IC50 is > 99 µM (inactive).

For the molecule `O=C(Sc1cccc2cccnc12)c1ccccc1OC(F)(F)F`, the IC50 was > 99 µM (inactive).

For `O=C(Sc1cccc2cccnc12)c1ccc(F)c(F)c1`, the IC50 is > 99 µM (inactive).

Turning to `COC(=O)[C@@H]1CCCN1C(=O)c1cnc2c(SSc3cccc4cc(C(=O)N5CCC[C@H]5C(=O)OC)cnc34)cccc2c1`, the IC50 was > 99 µM (inactive).

Take `COc1ccccc1C(=O)Sc1cccc2cccnc12`: the IC50 was > 99 µM (inactive).

In the case of `O=C(O)c1cnc2c(SSc3cccc4cc(C(=O)O)cnc34)cccc2c1`, the IC50 is > 99 µM (inactive).

As for `COc1ccc(C(=O)Sc2cccc3cccnc23)cc1F`, the IC50 was > 99 µM (inactive).

`COC(=O)[C@H](C)N(C)C(=O)c1cnc2c(SSc3cccc4cc(C(=O)N(C)[C@@H](C)C(=O)OC)cnc34)cccc2c1`: the IC50 is > 99 µM (inactive).

As to `O=C(Sc1cccc2cccnc12)c1cccc2ccccc12`, the IC50 was > 99 µM (inactive).

For `Cc1ccc(C(=O)Sc2cccc3cccnc23)cc1`, the IC50 is > 99 µM (inactive).

As to `O=C(Sc1cccc2cccnc12)c1cccc(Cl)c1`, the IC50 is > 99 µM (inactive).

In the case of `O=C(Sc1cccc2cccnc12)c1ccccc1Cl`, the IC50 is > 99 µM (inactive).

For `O=C(Sc1cccc2cccnc12)c1ccccc1[N+](=O)[O-]`, the IC50 was > 99 µM (inactive).

Turning to `O=C(Sc1cccc2cccnc12)c1ccc(F)cc1`, the IC50 was > 99 µM (inactive).

Turning to `CC[C@@H](C)[C@H](NC(=O)c1cnc2c(SSc3cccc4cc(C(=O)N[C@H](C(=O)OC)[C@@H](C)CC)cnc34)cccc2c1)C(=O)OC`, the IC50 is > 99 µM (inactive).

For `CC(C)(C)OC(=O)CCNC(=O)c1cnc2c(SSc3cccc4cc(C(=O)NCCC(=O)OC(C)(C)C)cnc34)cccc2c1`, the IC50 was > 99 µM (inactive).

Take `COC(=O)[C@@H](NC(=O)c1cnc2c(SSc3cccc4cc(C(=O)N[C@H](C(=O)OC)C(C)C)cnc34)cccc2c1)C(C)C`: the IC50 is > 99 µM (inactive).

For the molecule `O=C(Sc1cccc2cccnc12)C1CCCCC1`, the IC50 is > 99 µM (inactive).

On to `O=C(Sc1cccc2cccnc12)c1ccccc1F`, for which the IC50 is > 99 µM (inactive).

As for `O=C(Sc1cccc2cccnc12)c1ccc(F)cc1F`, the IC50 is > 99 µM (inactive).

Consider `C[C@@H](C(=O)O)N(C)C(=O)c1cnc2c(SSc3cccc4cc(C(=O)N(C)[C@@H](C)C(=O)O)cnc34)cccc2c1`, for which the IC50 is > 99 µM (inactive).

`CC(C)C[C@H](NC(=O)c1cnc2c(SSc3cccc4cc(C(=O)N[C@@H](CC(C)C)C(=O)O)cnc34)cccc2c1)C(=O)O`: the IC50 was > 99 µM (inactive).

Regarding `O=C(Sc1cccc2cccnc12)c1c(Cl)cccc1Cl`, the IC50 is > 99 µM (inactive).

In the case of `O=C(Sc1cccc2cccnc12)c1ccccc1`, the IC50 was > 99 µM (inactive).

Regarding `CC(C)Cc1ccc(C(=O)Sc2cccc3cccnc23)cc1`, the IC50 is > 99 µM (inactive).

As for `COC(=O)[C@H](C)NC(=O)c1ccnc2c(SSc3cccc4c(C(=O)N[C@@H](C)C(=O)OC)ccnc34)cccc12`, the IC50 is > 99 µM (inactive).

In the case of `COc1ccc(C(=O)Sc2cccc3cccnc23)cc1OC`, the IC50 is > 99 µM (inactive).

With `COC(=O)[C@H](C)NC(=O)c1cnc2c(SSc3cccc4cc(C(=O)N[C@@H](C)C(=O)OC)cnc34)cccc2c1`, the IC50 was > 99 µM (inactive).
